The source of these data is EPA's ToxValDB 9.5 (doi:10.2903/j.efsa.2010.1671).

Data set [1] deals with Anas platyrhynchos. The note with it: short-term; oral; feed; mortality.
Data set [2] has as its system Colinus virginianus. The conditions noted are these: acute, oral, mortality.
Data set [3] deals with Coturnix japonica. The note with it: reproduction developmental.
Data set [4] has as its system Leuciscus idus. The note with it: acute; duration: 96 hours; mortality.
Data set [5] has as its system Macromiidae. The conditions noted are these: acute; duration: 72 hours; biomass.
Data set [6] has as its system Rattus norvegicus. The conditions noted are these: for NOAEL: inhalation.
Where [7] appears, read: chronic, duration: 2 years, no effects.
Where [8] appears, read: reproduction developmental, mortality.
Setting [9] is: subchronic, duration: 90 days, no effects.

For `[PH]=[Zn].[PH]=[Zn].[Zn]` [Zinc phosphide (Zn3P2)], the LC50 in data set [1] was 2880 mg/kg; in data set [2] (diet), 468 mg/kg; in data set [4], greater than 21.7 µg/mL. Further, the LD50 in data set [2] was determined as 12.9 mg/kg-day; in data set [6] (acute, oral, mortality) it was 37 mg/kg-day. Moreover, the figures for the NOEL in data set [3] (F) and in data set [3] (M) were 0.99 mg/kg-day and 1.2 mg/kg-day, respectively. Further, in data set [5], the NOEC was 0.00323 mg/L. In addition, the NOAEL – broadly, the highest tested level that showed no adverse finding – in data set [6] (setting [7]) was 1.1 mg/kg-day; in data set [6] (setting [8]), 1.9 mg/kg-day; in data set [6] (setting [9]), 1.1 mg/kg-day. In addition, the LOEC in data set [6] (subchronic, duration: 90 days, oral) turned out to be 3.5 mg/kg-day.
In the case of `P` [Phosphine], the NOAEL in data set [6] (setting [7]) turned out to be 1.1 mg/kg-day; in data set [6] (setting [8]), 1.9 mg/kg-day; in data set [6] (setting [9]), 1.1 mg/kg-day.
